{
  "source": "patent US5141627A",
  "about": "“Chelators whose affinity for calcium ion is increased by illumination” (The Regents of the University of California, priority 1989, dated 1992)",
  "key": {"[1]": {"conditions": "cited from earlier work"}, "cells": {"system": "cells", "conditions": "photolyzed in cells; cited from earlier work"}, "[2]": {"conditions": "acid-base indicator; cited from earlier work"}, "[3]": {"conditions": "Mg.EGTA incl. monoprotonated form, pH 7.60, 0.1M ionic strength; assumed; read-out: apparent dissociation constant for Mg complex; cited from earlier work"}, "[4]": {"experiment": "Ca2+ affinity by UV spectra during titration of EGTA or HEEDTA buffers", "format": "binding", "conditions": "after photolysis; Hill plot / equilibrium measurements; read-out: Kd (Ca2+) / affinity after photolysis", "description": "The titration was done at 22° C. with 10 mL of 100 mM KCl, 10 mM K-MOPS, 10 mM K2 H.HEEDTA, and 14 […] diazo-2 as starting materials, adjusting the pH to 7.24, recording the spectrum, and then discarding 1.0 mL of this solution and replacing with 1.0 mL of 100 mM KCl, 10 mM K.MOPS, 10 mM KCa.HEEDTA, 14 μM diazo-2, readjusting the pH to 7.24, and recording the spectra, which was then in 9 mM K2H.HEEDTA. Subsequent iterations to reach n mM KCa.HEEDTA, (10-n) mM HEEDTA, n=2-10, were done by discarding 10.0/(11-n) mL and replacing with equal volumes of the 10mM KCa.HEEDTA, 14 μM diazo-2 stock. After n=10 had been reached to give free Ca^2+ between 10^-5 and 10^-4 M, addition of 1 mM CaCl2 had no further effect on the spectrum. For clarity only six spectra are including in the figure, n=0, 2, 4, 6, 8, and 10. Each spectrum is labeled with the calculated free [Ca^2+ ] imposed by the HEEDTA buffer, assuming a log effective stability constant of 5.55 at pH 7.24.\nThe phenylacetate was produced by irradiating a 30 μM solution of diazo-2 in 100 mM KCl, 10 mM Tris.HCl, 10 mM K2 H.HEEDTA, pH 8.40, with Spectroline lamp at 365 nm to completion. The titration was then performed as in A but the pH was maintained at 8.40, at which the calculated log effective stability is constant for HEEDTA was 6.60.\nCa^2+ -binding constants for chelators before and after photolysis were determined by monitoring UV spectra during titration of EGTA or HEEDTA buffers to varying free Ca^2+ levels.\nEither the ratio of, for example, [Ca.EGTA] to free [EGTA] was adjusted at a constant pH, or the pH was varied while [Ca.EGTA]=[EGTA]. These two approaches gave equivalent answers for pH>7 whenever directly tested, because of the pH insensitivity of BAPTA-like ligands (see FIG. 1 legend for more details). The apparent dissociation constants of Ca.EGTA and Ca.HEEDTA were calculated as described by R. Y. Tsien (1980); see also R. Y. Tsien, et al. (1986), S. R. Adams, et al. (1980), Grynkiewicz, et al., (1985), and Jackson, et al. (1987)."}, "[5]": {"experiment": "Ca2+ binding kinetics of photolyzed diazo-2 by competition with HEEDTA after flash photolysis", "source_text": "Having determined the rate at which the high-affinity chelator was photochemically generated from diazo-2, the kinetics of Ca^2+ binding by the photolysis of diazo-2 was examined relying on the 1:1 competition between protons and Ca^2+ for the chelator HEEDTA, i.e.:\nIf diazo-2 is photolyzed in the presence of HEEDTA partially saturated with Ca^2+, the photo-generated Compound 3c would take some Ca^2+ away from HEEDTA. The newly freed HEEDTA would then take up some protons and lead to an alkalinization of the sample. The shift in Ca^2+ -binding equilibrium is thus visualized with an indicator like cresol red. Control experiments indicate that at HEEDTA buffer concentrations ≥2 mM, the intrinsic kinetics of the Ca^2+ -HEEDTA equilibrium was no longer limiting the speed of the final alkalinization.\nIt is noted that the solution first acidified owing to the formation and dissociation of the product carboxylic acid, but subsequently began realkalinizing as the newly formed product chelator competed with HEEDTA for Ca^2+. The time constant of the realkalinization was 2.8 ms (Table I). […]\nFIG. 2B is a flash photolysis record of the kinetics of Ca^2+ uptake by photolyzed diazo-2. […] Monitoring the light transmission at 572 nm was performed as for A. Each small division of the ordinate corresponds to 3.4×10^-4 absorbance unit. […] As the photolyzed diazo-20 took Ca^2+ away from HEEDTA, the freed HEEDTA bound protons and thus alkalinized the solution, a process reflected by the increase in cresol red absorbance (i.e., decline in light transmission at 572 nm).\nKinetics of the conversion of diazo-2 and diazo-3 to the carboxylic acid products and the kinetics of Ca^2+ binding by photolyzed diazo-2 were measured by flash photolysis and pH monitoring. […]"}},
  "note": "“And” between values parts separate entries of the source, which are not always exact repeats. Identical values can stand only once. Like-named read-outs stand apart in the source and are kept apart here.",
  "data": [
    {"smiles": "Cc1ccc(N(CC(=O)O)CC(=O)O)c(OCCOc2cc(-c3c4cc(Cl)c(=O)cc-4oc4cc(O)c(Cl)cc34)ccc2N(CC(=O)O)CC(=O)O)c1", "note": "[Fluo-3]", "values": [
      {"measurement": "enhancement of fluorescence quantum yield by Ca2+ binding", "setting": "[1]; Ca2+ binding", "value": "about 40 fold"},
      {"measurement": "Kd", "setting": "[1]; read-out: Kd (Ca2+) of fluorescent indicator", "value": 0.4, "unit": "µM"}
    ]},
    {"smiles": "Cc1ccc(N(CC(=O)O)CC(=O)O)c(OCCOc2cc(C(O)c3cc4c(cc3[N+](=O)[O-])OCO4)ccc2N(CC(=O)O)CC(=O)O)c1", "note": "(stereo not drawn) [nitr-5]", "values": [
      {"measurement": "irradiation damage on photolysis in cells (in words)", "setting": "cells", "value": "without noticeable irradiation damage"}
    ]},
    {"smiles": "Cc1cc(C2(c3ccc(O)c(C)c3)OS(=O)(=O)c3ccccc32)ccc1O", "note": "[Cresol red]", "values": [
      {"measurement": "pKa", "setting": "[2]", "value": 8.2}
    ]},
    {"smiles": "O=C(O)CN(CCOCCOCCN(CC(=O)O)CC(=O)O)CC(=O)O", "note": "[EGTA, ethylenebis(oxyethylenenitrilo)tetraacetic acid]", "values": [
      {"measurement": "Kd", "setting": "[3]", "value": 6000, "unit": "µM"}
    ]},
    {"smiles": "Cc1ccc(N(CC(=O)O)CC(=O)O)c(OCCOc2cc(CC(=O)O)ccc2N(CC(=O)O)CC(=O)O)c1", "note": "[Compound 3c]", "values": [
      {"measurement": "Kd", "setting": "[4]", "value": "~0.073 µM and 0.073 µM"},
      {"measurement": "time constant of realkalinization", "setting": "[5]; 70 μM diazo-2, 2 mM HEEDTA half-saturated with Ca2+, free [Ca2+] 377 nM", "value": 2.8, "unit": "ms"},
      {"measurement": "koff, unimolecular rate constant for dissociation of Ca2+ complex", "setting": "[5]; photolyzed diazo-2", "value": 58, "unit": "s⁻¹"},
      {"measurement": "kon, bimolecular rate constant for binding of Ca2+", "setting": "[5]; photolyzed diazo-2", "value": "8e+08", "unit": "M⁻¹ s⁻¹"}
    ]}
  ]
}
